Data from US20190307664A1, “METHOD AND COSMETIC COMPOSITION FOR ENHANCED TRANSDERMAL DELIVERY OF ALKYL SUBSTITUTED RESORCINOL” (CONOPCO, INC., D/B/A UNILEVER, priority 2016, published 2019).

System: HeMnDP melanocyte monoculture
Experiment: Melanin content assay in melanocyte monoculture (after Calcein-AM viability assay)
Assay type: cell-based
Conditions: 72 hours
Method: All samples were analysed to determine the extent of their ability to bring about skin lightening by checking the cell viability and melanin content assay. Set Up of Cultures Involved the Following Steps: • ([…] per well (single wells/treatment) in 24-well Nunc plates on Day-0 were seeded to establish a melanocyte monoculture system. • (ii) The volume of media per well was limited to 1 ml of Melanocyte Growth Media (MGM) • (iii) 24 hours later, fresh media containing actives was added again. At this stage also, 1 ml of MGM was used. • (iv) Plates were incubated for 72 hours at 37° C. in a CO2 incubator. • (v) At the end, the plates were sent for Calcein assay, described hereinafter, followed by melanin content estimation. Calcein-AM Viability Assay • (i) The spent media was removed from each well of a 24-well plate and rinsed once with 400 μl of 1×PBS-Ca-Mg (see preparation below), including wells without cells (Control wells). • (ii) One μM Calcein-AM (working stock) in 1×PBS-Ca-Mg from 1 mM stock (e.g. 10 μl of 1 mM Calcein stock in 100% DMSO in 10 ml of 1×PBS-Ca-Mg) was prepared. About 400 μl of Calcein-AM working stock solution was added to each well, including the controls cells. • (iii) The plates were covered with aluminum foil and were incubated for 30 minutes in a CO2 incubator. • (iv) In the meantime, fluorescence was measured (excitation at 490 nm and emission at 520 nm) using TECAN® instrument after 30 minutes of dye incubation. • (v) After reading the plates, the buffer containing Calcein was removed and melanin content assay was then carried out. […] The % inhibition was then calculated for each case. Higher values of % inhibition indicate an active ingredient's potential to serve as a skin lightening agent. The tests of Example 2 were repeated with isonicotinamide instead of picolinamide.

CCCCCCc1ccc(O)cc1O [Ex-B, 4-hexyl resorcinol]
Inhibition in melanin synthesis (4-hexyl Resorcinol 0.192 μg, Example 2): 3% | Inhibition in melanin synthesis (4-hexyl Resorcinol 0.192 μg, Example 3): 3% | Inhibition in melanin synthesis (4-hexyl Resorcinol 1.92 μg, Example 2): 31% | Inhibition in melanin synthesis (4-hexyl Resorcinol 1.92 μg, Example 3): 31%

NC(=O)c1ccccn1 [Ex-D, Picolinamide]
Inhibition in melanin synthesis (picolinamide 122 μg): 1% | Inhibition in melanin synthesis (picolinamide 1220 μg): 27%

NC(=O)c1ccncc1 [Ex-I, Isonicotinamide]
Inhibition in melanin synthesis (Isonicotinamide 122 μg): −16% | Inhibition in melanin synthesis (Isonicotinamide 1220 μg): 10%
